# Values joined by “and” are separate entries in the source; they are usually repeats but may differ in a detail not shown here. Identical values can stand only once.
# Tests used:
# [1] = system: occlusive thrombus in left circumflex coronary artery (LCCA); assay: Anesthetized canine model of coronary thrombosis (anodal current stimulation of the LCCA); format: in vivo, dog
# Experimental: Sixty-six mongrel dogs of either sex weighing between 14 and 26 kg were anesthetized by intravenous administration of pentobarbital sodium solution (30 mg/kg). A supplemental dose of the anesthetic (65 to 130 mg) was administered as required. The dogs were endotracheally intubated and placed on a respirator (Biological Research Apparatus, Comerio-Varese, Italy) with the stroke volume adjusted to 20 ml/kg and a frequency of 12 breaths/minute. Peripheral arterial blood pressure was monitored with a pressure transducer (Micron Instruments, Simi Valley, Calif.) connected to a catheter placed in the right femoral artery. A catheter was inserted into the right femoral vein for withdrawing blood samples and another was inserted into the left jugular vein for administering intravenous fluids. A left thoracotomy was performed in the fifth intercostal space and the heart was suspended in a pericardial cradle. A 2 to 3-cm segment of the left circumflex coronary artery (LCCA) was isolated distal to the first diagonal branch. The small intervening coronary branches over the isolated segment were ligated. The artery was instrumented from proximal to distal with an ultrasonic flow probe, a stimulation electrode, and a Goldblatt clamp. The flow probe was connected to a Doppler flow meter (Crystal Biotech, Hopkinton, Mass.) in order to monitor the mean and the phasic LCCA blood flow velocities. The stimulation electrode and its placement in the LCCA and the methodology to induce an occlusive coronary thrombus are described in detail in Mickelson et al. Circulation, 1990; 81:617-627; Shebuski et al., Circulation, 1990; 82:169-177; and Tschopp et al., Coronary Artery Des., 1993; 4:809-817. Briefly, the needle tip of the electrode was inserted into the LCCA, ensuring its contact with the intraluminal surface of the vessel just under the Goldblatt clamp. The clamp was adjusted to reduce the peak reactive hyperemia following a 10-second period of total occlusion, without affecting the baseline mean LCCA blood flow velocity. Continuous recordings of blood pressure and LCCA blood flow velocity (mean and phasic) were obtained on a multichannel recorder (Gould Inc., Cleveland, Ohio).
# Approximately 30 minutes after the preparation of the dogs, the study was continued by the administration of one of the treatments presented in Table 2.
# The 0.6×SCa, 0.5×SCa and 0.4×SCa doses in Table 2 represent the reduced doses of the highest dose of SCa tested. Each dog was utilized only once. At 30 minutes, the stimulation electrode was then connected in series with a 12 K Ohms-112 K Ohms variable resistor to the positive terminal of a 9-V battery. The electrical circuit was completed by securing a needle electrode into a subcutaneous site and to the negative terminal of the battery. The anodal current delivered to the tip of the stimulation electrode was monitored and maintained at 250 μA. The number and the frequency of cyclic flow variations (CFV) that preceded the formation of an occlusive thrombus were recorded. CFV were observed as spontaneous shifts in mean and phasic LCCA blood flow velocity, with the sudden return of these variables to baseline. Proper positioning of the electrode in the LCCA was confirmed by visual inspection at the end of the experiment. Each experiment lasted for 180 minutes of anodal current unless the dog died after an occlusive thrombus was formed.
# [2] = system: Dog PRP platelet aggregation; assay: In-Vitro Platelet Aggregation in PRP (ADP-induced); format: cell-based; conditions: Canis lupus familiaris; ADP 50 um final concentration, dog platelet-rich plasma
# Experimental: Healthy male or female dogs were fasted for 8 hours prior to drawing blood; then 30 ml whole blood was collected using a butterfly needle and 30 cc plastic syringe with 3 ml of 0.129 M buffered sodium citrate (3.8%). The syringe was rotated carefully as blood was drawn to mix the citrate. Platelet-rich plasma (PRP) was prepared by centrifugation at 975×g for 3.17 minutes at room temperature allowing the centrifuge to coast to a stop without braking. The PRP was removed from the blood with a plastic pipette and placed in a plastic capped, 50 mL Corning conical sterile centrifuge tube which was held at room temperature. Platelet poor plasma (PPP) was prepared by centrifuging the remaining blood at 2000×g for 15 minutes at room temperature allowing the centrifuge to coast to a stop without braking. The PRP was adjusted with PPP to a count of 2-3×10^8 platelets per mL. 400 uL of the PRP preparation and 50 uL of the compounds solution to be tested or saline were preincubated for 1 minute at 37° C. in an aggregometer (BioData, Horsham, Pa.). 50 uL of adenosine 5′ diphosphate (ADP) (50 um final concentration) was added to the cuvettes and the aggregation was monitored for 1 minute. All compounds are tested in duplicate. Results are calculated as follows: Percent of control=[(maximal OD minus initial OD of compound) divided by (maximal OD minus initial OD of control saline)]×100. […]
# [3] = Bioassay for SCa plasma levels; format: in vivo; conditions: steady state, dog plasma, mean ± SEM
# Experimental: SCa plasma levels were determined from the blood samples used for platelet aggregation. Plasma levels of SCa were measured using a modification of a bioassay method previously described in Salyers et al., Throm. Res., 1994, 75:409-417. The bioassay used plasma from treated dogs as the source of inhibitor to be tested in vitro against normal (naive) platelets from donor dogs. Briefly, PRP from non-treated dogs was added to wells containing plasma samples from treated dogs in a 96 well microtiter plate. ADP (20 μM) was added to the platelet suspension in each well to induce aggregation. Optical density at 405 nanometers was measured on all wells simultaneously in a platereader (Thermomax microplate reader, Molecular Devices, Menlo Park, Calif.). The results were quantified by comparison to a standard inhibition curve prepared in plasma using known amounts of SCa.
# [4] = system: collagen-induced platelet aggregation; assay: Ex vivo collagen-induced platelet aggregation in PRP of treated dogs; parameters: species or system dog; conditions: mean±SEM
# Experimental: Peripheral venous blood was collected into citrated Vacutainer tubes (containing 0.3 ml of 3.8% sodium citrate solution) and platelet-rich plasma (PRP) was obtained by centrifugation (model Technospin R, Sorvall Instruments, DuPont, Wilmington, Del.) the blood at 266×g for 6 minutes at 24° C. Platelet-poor plasma (PPP) was obtained by further centrifugation at 2000×g for 10 minutes at 24° C. Samples were assayed on an aggregometer (model PAP-4, Bio/Data Corporation, Hatboro, Pa.) with PPP as the blank. The aggregations were performed by adding 50 μl of collagen ([…] final concentration) to 450 μl of PRP and measuring aggregation for 3 minutes. Blood samples used in platelet aggregation were collected at the following time periods: before treatment administration (baseline), immediately before anodal stimulation (at 30 minutes), at 60 minutes, then at 1-hour intervals to the end of experimentation. The blood samples at 60, 120 and 180 minutes were averaged (since the three blood samples yielded similar data) to obtain the steady-state platelet inhibition value for all comparisons except for saline and heparin (since no 120-minute sample was taken, 60 and 180 minute samples were used). Results are expressed as percent inhibition and represent steady-state conditions.
# [5] = no SCa, ASA 2.8 mg/kg iv bolus, heparin 200 units/kg bolus then 1000 units/hour
# [6] = no SCa, ASA 2.8 mg/kg iv bolus, heparin 200 units/kg bolus then 1000 units/hour, mean±SEM, n=6
# [7] = no SCa, ASA 2.8 mg/kg iv bolus, heparin 200 units/kg bolus then 1000 units/hourly, mean ± SEM, n=6/group
# [8] = no SCa, ASA 2.8 mg/kg iv bolus, heparin 200 units/kg bolus then 1000 units/hourly, n=6/group
# [9] = 0.6 × SCa (0.52//0.23 μg/kg/min iv)
# [10] = 1 × SCa (0.87//0.39 μg/kg/min iv)
# [11] = 0.6 × SCa (0.52//0.23 μg/kg/min iv), mean±SEM, n=6
compound,measurement,setting,value
"CC(=O)Oc1ccccc1C(=O)O [ASA, acetylsalicyclic acid, reference compound]",occurrence of thrombosis (occlusive thrombus) in dogs,"[1]; no SCa, ASA 2.8 mg/kg iv bolus, 180 minutes of anodal current, n=6",did occur before the completion of the 180 minutes of current in all of the dogs
same,effectiveness in the thrombosis model,[1]; [5],not effective
same,time to zero flow,[1]; [6],64 ± 7 min
same,Mean CFV/Minute (×100),[1]; [7],6 ± 2 CFV/Minute (×100)
same,Number of Dogs with CFV,[1]; [8],6/6
"C#C[C@H](CC(=O)OCC)NC(=O)CCC(=O)Nc1ccc(C(=N)N)cc1 [Example 1, Ethyl 3S-[[4-[[4-(aminoiminomethyl)phenyl]-amino]-1,4-dioxobutyl]amino]-4-pentynoate]",IC50,[2],4600 nM
C#C[C@H](CC(=O)O)NC(=O)CCC(=O)Nc1ccc(C(=N)N)cc1 [Example 2],IC50,[2],70 nM
same,Plasma Level of SCa,[3]; 0.5 × SCa (0.425//0.20 μg/kg/min iv),35 ± 8 ng/mL
same,Plasma Level of SCa,[3]; [9],48 ± 7 ng/mL
same,Plasma Level of SCa,[3]; [10],57 ± 4 ng/mL
same,steady-state inhibition of platelet aggregation (Percent Inhibition),[4]; 0.5 × SCa (0.425//0.20 μg/kg/min iv) alone or with ASA 2.8 mg/kg bolus and/or heparin 200 units/kg + 1000 units/hour,70±4%
same,steady-state inhibition of platelet aggregation (Percent Inhibition),[4]; [9],83±3%
same,steady-state inhibition of platelet aggregation (Percent Inhibition),[4]; [10],92±5%
same,dogs with occlusive thrombus / LCCA thrombosis,"[1]; 0.5 × SCa (0.425//0.20 μg/kg/min iv) alone or with ASA and/or heparin, 180 minutes of anodal current, n=6/group",4 of 6
same,Mean CFV/Minute (×100),"[1]; 0.5 × SCa (0.425//0.20 μg/kg/min iv) alone or with ASA and/or heparin, mean ± SEM, n=6/group",5 ± 1 CFV/Minute (×100)
same,Number of Dogs with CFV,"[1]; 0.5 × SCa (0.425//0.20 μg/kg/min iv) alone or with ASA and/or heparin, n=6/group",6/6
same,time to zero flow,"[1]; 0.5 × SCa (0.425//0.20 μg/kg/min iv), mean±SEM, n=6",130 ± 22 min
same,Mean CFV/Minute (×100),[1]; [11],3 ± 1 CFV/Minute (×100)
same,time to zero flow,[1]; [11],158 ± 15 min
same,Number of Dogs with CFV,"[1]; 0.6 × SCa (0.52//0.23 μg/kg/min iv), n=6",4/6
same,occurrence of thrombosis (occlusive thrombus) in dogs,"[1]; 1 × SCa (0.87//0.39 μg/kg/min iv), 180 minutes of anodal current, n=6",did not occur in any of the dogs
same,Mean CFV/Minute (×100),"[1]; 1 × SCa (0.87//0.39 μg/kg/min iv), during anodal stimulation of the LCCA, mean ± SEM, n=6",0.7 ± 0.7 CFV/Minute (×100)
same,Number of Dogs with CFV,"[1]; 1 × SCa (0.87//0.39 μg/kg/min iv), n=6, listed as SCa",1 of 6 and 1/6
same,time to zero flow,"[1]; 1 × SCa (0.87//0.39 μg/kg/min iv, loading 15 min // maintenance), 180 min = end of protocol with no occlusion, mean±SEM, n=6",180 ± 0 min
Heparin [reference compound],steady-state inhibition of platelet aggregation,[4]; [5],13±2%
same,effectiveness in the thrombosis model,[1]; [5],not effective
same,time to zero flow,[1]; [6],114 ± 16 min
same,Mean CFV/Minute (×100),[1]; [7],5 ± 1 CFV/Minute (×100)
same,Number of Dogs with CFV,[1]; [8],6/6

# — patent US20030054029A1, “IIB/IIIA ANTAGONISTS CO-ADMINISTERED WITH ASPIRIN” (priority 1997, published 2003)
